The record followed here is patent US20210177879A1, “VITAMIN D RECEPTOR AGONIST” (Guanghzou University of Chinese Medicine, priority 2018, published 2021).

Assay [1] concerns HT29 transplanted tumor. The experiment in a line: Transplanted tumor of HT29 colon cancer cells in nude mice. The assay is classed as in vivo. As to conditions: 2 mg/kg in combination with 5-fluorouracil at half dose (20 mg/kg), once a day; effect comparable to 5-fluorouracil alone 40 mg/kg. The procedure:
(§1) The HT29 cells were thawed, and cultured in a changed medium after 24 hours. Medium preparation method: 6% serum, 1% of a bispecific antibody+a 1640 basal medium. After grown to confluent, the cells were digested and subcultured to expand the number of cells. When reached the required amount, the cells were digested by trypsin, centrifuged, and resuspended in PBS to prepare a cell suspension of 1×10^8 cells/ml. A part of the cell suspension was added with the monotropein, desacetyl asperulosidic acid, asperuloside, and asperulosidic acid respectively, and the inhibition rate (%) of tumor cell proliferation by each of these different compounds was examined.
(§2) Male adult nude mice, which had the body weights of 20-24 g, were purchased from Guangdong Medical Laboratory Animal Center. After 7 days of adaptive feeding of the animals, except for the blank group, the remaining animals were injected with 0.2 ml of a cell suspension in PBS at ventrodorsal and scapula sites of them, the response conditions of the animals were observed, and the body weights of the animals were determined once a week. After 2 weeks of observation, the animals were grouped into the following groups according to tumor size: a blank group; a model group; a 5-fluorouracil control group (5-Full, 40 mg/kg); monotropein+5-fluorouracil (2 mg/kg monotropein+20 mg/kg 5-fluorouracil), desacetyl asperulosidic acid+5-fluorouracil (2 mg/kg desacetyl asperulosidic acid+20 mg/kg 5-fluorouracil), asperuloside+5-fluorouracil (2 mg/kg asperuloside+20 mg/kg 5-fluorouracil), asperulosidic acid+5-fluorouracil (2 mg/kg asperulosidic acid+20 mg/kg 5-fluorouracil), these groups being labeled as: Mo, As, Aa, Da. Each group included 8 animals; and administration was conducted once a day.
(§3) The status, death conditions, and eating and drinking conditions of the animals were observed daily. The body weights of the animals were determined once a week and the tumor size of the animals was determined every 4 days. The tumor volume of the animals was determined by using a vernier caliper. After 1 month of administration, the animals were sacrificed after blood was sampled from the orbit thereof, and the tumor was separated and weighed.

Assay [2] relates to transplanted tumor of MB-231 pancreatic cancer cells. The experiment in a line: Transplanted tumor of MB-231 pancreatic cancer cells in nude mice. The assay is classed as in vivo. The note with it: 2 mg/kg in combination with 5-fluorouracil at half dose (20 mg/kg), once a day; effect comparable to 5-fluorouracil alone 40 mg/kg. How it is done: as §1, with “SMB-231 pancreatic cancer” for “HT29”
as §2, with “of a SMB-231 pancreatic cancer cell suspension” for “of a cell suspension”
as §3

The test system of assay [3] is SW1990 breast cancer cells. The experiment in a line: In vitro proliferation inhibition of SW1990 breast cancer cells. It is filed as cell-based. As to conditions: concentration of 1 uM; compared with blank control group. How it is done:
as §1, with “SW1990” for “HT29”

Assay [4] deals with AOM/DSS colon cancer model. The experiment in a line: AOM/DSS colon cancer model, Experiment 2 (colon length, thickness, tumors). The note with it: 2 mg/kg once a day. It is filed as in vivo, Balb/c mice. The procedure: (§4) Experimental method: 70 Balb/c mice of 6-8 weeks were purchased from the Experimental Animal Center in Guangzhou University of Chinese Medicine, weighed about 18-22 g, and subjected to adaptive feeding for 10 days. Modeling was divided into three stages. In the first stage, except for the normal group of animals being given saline injection, each of the other animals were intraperitoneally injected with a carcinogen AOM (10 mg/kg), and given free access to 2% DSS water from the next day for 7 days, and then given access to replaced regular drinking water for 14 days. In the second stage, the animals were given free access to 2% DSS water for 10 days, and then given access to replaced regular drinking water for 14 days. In the third stage, the animals were given free access to 2% DSS water for 10 days, and then given access to replaced regular drinking water for 11 days. The normal group was given access to regular drinking water throughout the experiment. The diet, water drinking and body weights of the animals were recorded daily and DAI scores were made, and the animals were killed and harvested at the 10th week. In this experiment, the animals were divided into groups and administrated on the first day of a modeling period of the second stage, where a total of 7 groups were set, each group including 10 animals. The first group was a blank control group (control) that was given access to drinking water by gavage; the second group was a model group (model), in which a total of 10 animals were given access to drinking water by gavage; the third group was a vitamin D3 positive administration control group (VD3, 0.2 mg/kg); and the fourth to seventh groups were given monotropein, desacetyl asperulosidic acid, asperuloside, and asperulosidic acid (groups labeled as: Mo, As, Aa, Da), respectively at a given dose of 2 mg/kg. Dosing was conducted once a day until the end of the experiment. At the end of the experiment, the animals were anesthetized and harvested, and the colon tissue was taken, measured with a ruler for the length, and measured with a vernier caliper for the thickness. The effects of monotropein, desacetyl asperulosidic acid, asperuloside and asperulosidic acid on expression of the vitamin D receptor were detected.

Assay [5] has as its system SMB-231 pancreatic cancer cells. As to the kind of experiment: In vitro proliferation inhibition of SMB-231 pancreatic cancer cells. The assay is classed as cell-based. The note with it: concentration of 1 uM; compared with blank control group. The procedure: as §1, with “SMB-231 pancreatic cancer” for “HT29”
In assay [6] the test system is transplanted tumor of SW1990 breast cancer cells. As to the kind of experiment: Transplanted tumor of SW1990 breast cancer cells in nude mice. It is filed as in vivo. As to conditions: 2 mg/kg in combination with 5-fluorouracil at half dose (20 mg/kg), once a day; effect comparable to 5-fluorouracil alone 40 mg/kg. How it is done: as §1, with “SW1990” for “HT29”
as §2, with “of a SW1990 cell suspension” for “of a cell suspension”
as §3

Assay [7] deals with HT29 colon cancer cells. As to the kind of experiment: In vitro proliferation inhibition of HT29 colon cancer cells. As to conditions: concentration of 1 uM; compared with blank control group. It is filed as cell-based. The procedure:
as §1

Assay [8] concerns vitamin D receptor. The experiment in a line: Expression of vitamin D receptor in colon tissues, Experiment 2 (Western blot, immunohistochemistry). As to conditions: compared with the blank group; VD3 0.2 mg/kg, four compounds 2 mg/kg. It is filed as in vivo, Balb/c mice. The procedure: as §4

Consider `CC(=O)OCC1=C[C@@H]2OC(=O)C3=CO[C@@H](O[C@@H]4O[C@H](CO)[C@@H](O)[C@H](O)[C@H]4O)[C@H]1[C@@H]32` [asperuloside], for which the “tumor proliferation in HT29 tumor-bearing mice” value in assay [1] is on record as “significantly inhibit tumor proliferation”. The “tumor proliferation in SMB-231 tumor-bearing mice” value in assay [2] was “significantly inhibit tumor proliferation”. Besides, the “proliferation of SW1990 cells in vitro” value in assay [3] is given as “significantly inhibit the proliferation”. In assay [4], the “incidence and development of colorectal cancers” value (shortened to “incidence and development”) is “inhibiting the incidence and development of colorectal cancers”. Moreover, the “proliferation of SMB-231 pancreatic cancer cells in vitro” value in assay [5] is on record as “significantly inhibit the proliferation”. Also, the “tumor proliferation in SW1990 tumor-bearing mice” value in assay [6] is on record as “significantly inhibit tumor proliferation”. In assay [7], the “proliferation of HT29 colorectal cancer cells in vitro” value is listed as “significantly inhibit the proliferation”. In addition, the “expression of the vitamin D receptor in the colon tissues (Western blot and immunohistochemistry)” value (shortened to “expression of the vitamin D receptor”) in assay [8] is listed as “promote expression enhancement”.
For `C=C1CC[C@H](O)C/C1=C/C=C1\CCC[C@]2(C)[C@@H]([C@H](C)CCCC(C)C)CC[C@@H]12` [vitamin D3, reference compound], in assay [8], the “expression of the vitamin D receptor” value was “promote expression enhancement”.
As for `CC(=O)OCC1=C[C@H](O)[C@@H]2C(C(=O)O)=CO[C@@H](O[C@@H]3O[C@H](CO)[C@@H](O)[C@H](O)[C@H]3O)[C@H]12` [asperulosidic acid], the “tumor proliferation in HT29 tumor-bearing mice” value in assay [1] is “significantly inhibit tumor proliferation”. Further, the “tumor proliferation in SMB-231 tumor-bearing mice” value in assay [2] is reported as “significantly inhibit tumor proliferation”. Besides, the “proliferation of SW1990 cells in vitro” value in assay [3] was “significantly inhibit the proliferation”. In assay [4], the “incidence and development” value was “inhibiting the incidence and development of colorectal cancers”. For the same compound, the “proliferation of SMB-231 pancreatic cancer cells in vitro” value in assay [5] is given as “significantly inhibit the proliferation”. In assay [6], the “tumor proliferation in SW1990 tumor-bearing mice” value is “significantly inhibit tumor proliferation”. Further, the “proliferation of HT29 colorectal cancer cells in vitro” value in assay [7] is “significantly inhibit the proliferation”. Besides, the “expression of the vitamin D receptor” value in assay [8] is given as “promote expression enhancement”.
As to `O=C(O)C1=CO[C@@H](O[C@@H]2O[C@H](CO)[C@@H](O)[C@H](O)[C@H]2O)[C@@H]2C(CO)=C[C@H](O)[C@H]12` [desacetyl asperulosidic acid], the “tumor proliferation in HT29 tumor-bearing mice” value in assay [1] is given as “significantly inhibit tumor proliferation”. Besides, the “tumor proliferation in SMB-231 tumor-bearing mice” value in assay [2] is “significantly inhibit tumor proliferation”. Also, in assay [3], the “proliferation of SW1990 cells in vitro” value is given as “significantly inhibit the proliferation”. Further, the “incidence and development” value in assay [4] is “inhibiting the incidence and development of colorectal cancers”. The “proliferation of SMB-231 pancreatic cancer cells in vitro” value in assay [5] is “significantly inhibit the proliferation”. Besides, in assay [6], the “tumor proliferation in SW1990 tumor-bearing mice” value is “significantly inhibit tumor proliferation”. The “proliferation of HT29 colorectal cancer cells in vitro” value in assay [7] is recorded as “significantly inhibit the proliferation”. For the same compound, in assay [8], the “expression of the vitamin D receptor” value is “promote expression enhancement”.
